Earlier results on one compound are cited in patent publication US20130158028A1, “USE OF STIMULATORS AND ACTIVATORS OF SOLUBLE GUANYLATE CYCLASE FOR TREATING SICKLE-CELL ANEMIA AND CONSERVING BLOOD SUBSTITUTES” (BAYER INTELLECTUAL PROPERTY GMBH, priority 2010, published 2013).

For this series the following is noted: repeated reports.

On to `CN1CC(=O)N2[C@H](c3ccc4c(c3)OCO4)c3[nH]c4ccccc4c3C[C@@H]2C1=O` [tadalafil, (6R,12aR)-2,3,6,7,12,12a-hexahydro-2-methyl-6-(3,4-methylenedioxyphenyl)pyrazino (1′,2′:1,6) pyrido(3,4-b)indole-1,4-dione], for which the “incidence of back pain” value is “increased incidence of back pain”.
